Measurements taken from ChEMBL document CHEMBL1201862, “PubChem BioAssay data set” (2004).
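96-well plates; 48 h exposure; 5 concentrations. Endpoints by linear interpolation between flanking doses. Not reached: highest tested concentration assigned. At the GI50, growth is halved.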 The source made the active and inactive calls. No stated cut-off is given here; in the data, active = GI50 up to about 1.1 µM and inactive = higher. Where a SMILES comes first, the peptide text is derived from it. [ ]: non-standard residue; d: D form. The star is where a group is joined. ξ: configuration not given here. NMeF = CN[CH](Cc1ccccc1)C(=O)O; ξNMe2Val = CC(C)C(C(=O)*)N(C)C; NMeV = CN[CH](C(=O)O)C(C)C; OtBu = CC(C)(C)O*

Columns and labels:
Experiment in all cases: growth of human tumour cells (NCI), 48 h
A498 = tested on: A498
ACHN = tested on: ACHN
CCRF-CEM = tested on: CCRF-CEM
HCT-116 = tested on: HCT-116
HT-29 = tested on: HT-29
NCI-H226 = tested on: NCI-H226
NCI-H460 = tested on: NCI-H460
OVCAR-5 = tested on: OVCAR-5
RPMI-8226 = tested on: RPMI-8226
SK-MEL-5 = tested on: SK-MEL-5
SK-OV-3 = tested on: SK-OV-3
UACC-257 = tested on: UACC-257
UACC-62 = tested on: UACC-62
SF-268 = tested on: SF-268
SN12C = tested on: SN12C

Measured: GI50

N#[N+]c1ccccc1Sc1ccc(Cl)cc1
inactive: A498 > 100 µM | ACHN > 100 µM | CCRF-CEM 89.9 µM | HCT-116 74.3 µM | HT-29 > 100 µM | NCI-H226 76.9 µM | NCI-H460 > 100 µM | OVCAR-5 > 100 µM | RPMI-8226 52.4 µM | SK-MEL-5 61.2 µM | SK-OV-3 > 100 µM | UACC-257 > 100 µM | UACC-62 > 100 µM

C[C@]12CC(C=O)C(=O)C(O)=C1CC[C@@H]1C2CC[C@@]2(C)C1CC[C@]2(C)O (some centres not stated)
inactive: A498 22.1 µM | ACHN 22.3 µM | CCRF-CEM > 10 µM | HCT-116 20 µM | HT-29 4.66 µM | NCI-H226 18.6 µM | NCI-H460 30.3 µM | OVCAR-5 16.5 µM | RPMI-8226 16.6 µM | SF-268 25.4 µM | SK-MEL-5 17.6 µM | SK-OV-3 21.4 µM | SN12C 21.2 µM | UACC-257 24.2 µM | UACC-62 13.8 µM

COC(=O)C12C3C4C1C1C2C3C41I (configuration not stated)
inactive: A498 > 100 µM | ACHN > 100 µM | CCRF-CEM > 100 µM | HT-29 > 100 µM | NCI-H226 > 100 µM | NCI-H460 > 100 µM | OVCAR-5 > 100 µM | RPMI-8226 > 100 µM | SF-268 > 100 µM | SK-MEL-5 > 100 µM | SK-OV-3 > 100 µM | SN12C > 100 µM | UACC-257 > 100 µM | UACC-62 > 100 µM

NC(=O)N/N=C(\CC1OC(=O)c2ccccc21)c1ccc([N+](=O)[O-])cc1 (configuration not stated)
inactive: A498 82 µM | ACHN 62.1 µM | CCRF-CEM 31.3 µM | HCT-116 28.7 µM | HT-29 40.6 µM | NCI-H460 39.9 µM | RPMI-8226 31.3 µM | SK-MEL-5 23.1 µM | SN12C 31 µM | UACC-257 67.3 µM | UACC-62 18.4 µM

C/C(=C1/CCC/C(=C(/C)c2ccccc2)C1=O)c1ccccc1
inactive: ACHN 38.6 µM | CCRF-CEM 22.2 µM | HCT-116 18.5 µM | HT-29 26.4 µM | NCI-H226 17.4 µM | NCI-H460 27.2 µM | OVCAR-5 27.2 µM | RPMI-8226 23.9 µM | SF-268 45.7 µM | SK-MEL-5 22.8 µM | SK-OV-3 > 100 µM | SN12C 50.7 µM | UACC-257 25 µM | UACC-62 37.2 µM

CC1=CC2CCC1(C)C/C2=C(/C)OC=O (configuration not stated)
inactive: ACHN > 100 µM | CCRF-CEM > 100 µM | HCT-116 > 100 µM | HT-29 > 100 µM | NCI-H226 > 100 µM | NCI-H460 > 100 µM | OVCAR-5 > 100 µM | RPMI-8226 > 100 µM | SF-268 > 100 µM | SK-MEL-5 > 100 µM | SK-OV-3 > 100 µM | SN12C > 100 µM | UACC-257 > 100 µM | UACC-62 > 100 µM

CCc1cc(Cc2cc(Cl)c(NC(=O)C(=O)C3NC(=O)NC3=O)c(CC)c2)cc(Cl)c1NC(=O)C(=O)C1NC(=O)NC1=O (configuration not stated)
inactive: A498 > 100 µM | ACHN 94.4 µM | CCRF-CEM 34.5 µM | HCT-116 31.3 µM | HT-29 26.1 µM | NCI-H226 > 100 µM | NCI-H460 36.1 µM | OVCAR-5 > 100 µM | RPMI-8226 26.4 µM | SF-268 20.7 µM | SK-MEL-5 > 100 µM | SK-OV-3 33.9 µM | SN12C 50.8 µM | UACC-257 30.6 µM | UACC-62 46.7 µM

CCn1c(=O)c2ccccc2n2c(=O)c3cc4ccccc4cc3nc12
inactive: A498 > 100 µM | ACHN > 100 µM | CCRF-CEM > 100 µM | HCT-116 > 100 µM | HT-29 64.4 µM | NCI-H226 > 100 µM | NCI-H460 > 100 µM | OVCAR-5 > 100 µM | RPMI-8226 > 100 µM | SF-268 65.6 µM | SK-MEL-5 63 µM | SK-OV-3 92.7 µM | SN12C > 100 µM | UACC-257 > 100 µM | UACC-62 > 100 µM

O=S1(=O)COc2ccccc2-c2ncncc21
inactive: A498 > 100 µM | ACHN > 100 µM | CCRF-CEM > 100 µM | HCT-116 > 100 µM | HT-29 > 100 µM | NCI-H226 > 100 µM | NCI-H460 > 100 µM | OVCAR-5 > 100 µM | RPMI-8226 > 100 µM | SF-268 > 100 µM | SK-MEL-5 > 100 µM | SK-OV-3 > 100 µM | SN12C > 100 µM | UACC-257 > 100 µM | UACC-62 > 100 µM

CC(C)N1CCC2(CC1)NNc1ncccc1-n1cccc12
inactive: ACHN > 100 µM | CCRF-CEM > 100 µM | HCT-116 > 100 µM | HT-29 > 100 µM | NCI-H226 > 100 µM | NCI-H460 > 100 µM | OVCAR-5 > 100 µM | RPMI-8226 > 100 µM | SF-268 > 100 µM | SK-MEL-5 > 100 µM | SN12C > 100 µM | UACC-257 > 100 µM

CC(C)(C)OC(=O)N1CC(C)(C)N2C(=O)C3(CCCO3)C12 (configuration not stated)
inactive: A498 > 100 µM | ACHN > 100 µM | CCRF-CEM 67.1 µM | HCT-116 > 100 µM | HT-29 > 100 µM | NCI-H226 > 100 µM | NCI-H460 > 100 µM | OVCAR-5 > 100 µM | RPMI-8226 19.5 µM | SF-268 > 100 µM | SK-MEL-5 > 100 µM | SK-OV-3 > 100 µM | SN12C > 100 µM | UACC-257 > 100 µM | UACC-62 > 100 µM

CC(=O)NC1=C(NCC(C)C)C(=O)c2ccccc2C1=O
inactive: A498 83.2 µM | ACHN > 100 µM | CCRF-CEM 7.18 µM | HCT-116 20.3 µM | HT-29 41 µM | NCI-H226 16 µM | NCI-H460 34.7 µM | OVCAR-5 65.9 µM | RPMI-8226 37.3 µM | SF-268 20.5 µM | SK-MEL-5 19.9 µM | SK-OV-3 78.2 µM | SN12C 16.9 µM | UACC-257 18.8 µM | UACC-62 18 µM

COC(=O)C1Cc2c(n(Cc3ccccc3)c3ccccc23)C(CCC(=O)O)N1C(C)C (configuration not stated)
inactive: A498 > 100 µM | ACHN > 100 µM | CCRF-CEM > 100 µM | HCT-116 > 100 µM | HT-29 > 100 µM | NCI-H226 > 100 µM | NCI-H460 > 100 µM | OVCAR-5 > 100 µM | SF-268 > 100 µM | SK-MEL-5 > 100 µM | SK-OV-3 > 100 µM | SN12C > 100 µM | UACC-257 > 100 µM | UACC-62 > 100 µM

Cc1ccc(S(=O)(=O)N2CCCCC2CCO)cc1 (configuration not stated)
inactive: A498 > 100 µM | ACHN > 100 µM | CCRF-CEM > 100 µM | HCT-116 > 100 µM | HT-29 > 100 µM | NCI-H226 > 100 µM | NCI-H460 > 100 µM | OVCAR-5 > 100 µM | RPMI-8226 > 100 µM | SF-268 > 100 µM | SK-MEL-5 > 100 µM | SK-OV-3 > 100 µM | SN12C > 100 µM | UACC-257 > 100 µM | UACC-62 > 100 µM

CCC(Oc1ccc(OC)c2c1C(=O)CCC2)C(=O)O (configuration not stated)
inactive: A498 > 100 µM | ACHN > 100 µM | CCRF-CEM > 100 µM | HT-29 > 100 µM | NCI-H226 > 100 µM | NCI-H460 > 100 µM | OVCAR-5 > 100 µM | RPMI-8226 > 100 µM | SF-268 > 100 µM | SK-MEL-5 > 100 µM | SK-OV-3 > 100 µM | SN12C > 100 µM | UACC-257 > 100 µM | UACC-62 > 100 µM

NCCCSCC(=O)O
inactive: ACHN > 100 µM | HCT-116 > 100 µM | HT-29 > 100 µM | NCI-H226 > 100 µM | OVCAR-5 > 100 µM | RPMI-8226 > 100 µM | SF-268 > 100 µM | SK-MEL-5 > 100 µM | SK-OV-3 > 100 µM | SN12C > 100 µM | UACC-257 > 100 µM | UACC-62 > 100 µM

COc1ccc(/C(Cl)=C(\c2ccc(OCCN(C)C)cc2)c2ccc(OC(=O)C(C)(C)C)cc2)cc1
inactive: ACHN 16 µM | CCRF-CEM 11 µM | HCT-116 12.1 µM | HT-29 3.85 µM | NCI-H226 12.9 µM | NCI-H460 10.3 µM | OVCAR-5 15.7 µM | RPMI-8226 14.3 µM | SF-268 13.7 µM | SK-MEL-5 14 µM | SK-OV-3 11.1 µM | SN12C 13.4 µM | UACC-62 14.8 µM

O=c1cc(-c2ccccc2)oc2cc(OCCCCCCCCCCOc3ccc4c(=O)cc(-c5ccccc5)oc4c3)ccc12
inactive: ACHN > 100 µM | CCRF-CEM > 100 µM | HCT-116 > 100 µM | HT-29 > 100 µM | OVCAR-5 > 100 µM | RPMI-8226 > 100 µM | SK-MEL-5 > 100 µM | SK-OV-3 > 100 µM | SN12C 42.5 µM | UACC-257 > 100 µM | UACC-62 > 100 µM

O=C1C2[C@@H](C(=O)N1c1ccc(Br)cc1)C13C(=CC2([N+](=O)[O-])[C@@H]2C(=O)N(c4ccc(Br)cc4)C(=O)[C@@H]21)c1ccccc1N3c1ccccc1 (some centres not stated)
inactive: ACHN > 100 µM | CCRF-CEM 46.7 µM | NCI-H226 > 100 µM | OVCAR-5 > 100 µM | RPMI-8226 > 100 µM | SF-268 11.6 µM | SN12C > 100 µM | UACC-257 > 100 µM

CC(C)C(C(=O)N(C)C(Cc1ccccc1)C(=O)N(C)C(C(=O)N(C)C(C(=O)N1CCCC1C(=O)OC(C)(C)C)C(C)C)C(C)C)N(C)C (configuration not stated) (ξNMe2Val-[NMeF][NMeV][NMeV]P-OtBu; configuration not given here)
inactive: ACHN 65 µM | CCRF-CEM 31.6 µM | HCT-116 33.6 µM | HT-29 40.4 µM | NCI-H226 > 100 µM | NCI-H460 43.2 µM | RPMI-8226 36.8 µM | SF-268 63 µM | SK-MEL-5 18 µM | SN12C 50.1 µM | UACC-257 32.8 µM | UACC-62 51.9 µM
